Laboratory results taken from patent US20260159519A1, “IMIDAZOPYRIDAZINE SUBSTITUTED BENZENE RING DERIVATIVE, PREPARATION METHOD, PHARMACEUTICAL COMPOSITION AND USE” (SHANGHAI SIMR BIOTECHNOLOGY CO., LTD., priority 2022, published 2026).

How the values were obtained:
[1] = target: T1, human α2-GABAA receptor (α2-GABAAR-HEK293 cells) (Homo sapiens, UniProt P18507+P47869); assay: Whole-cell patch-clamp electrophysiology, positive allosteric modulatory activity on α2-GABAA receptor; assay type: cell-based; details: read-out: α2-GABAA positive allosteric modulatory activity
T1 construct: expressed in transfected cells

[2] = tested on: Chinese hamster ovary cells (CHO-WBL cells); assay: In vitro micronucleus assay; assay type: cell-based; details: 3-hour treatment with S9, 3-hour and 24-hour treatment without S9; overall judgment
Text: The experimental design is based on the experimental purpose and follows the following experimental design guidelines: • (1) OECD Guidelines for the Testing of Chemicals 487, In Vitro Mammalian Cell Micronucleus Test, revised in 2016; • (2) ICH S2 (R1): Guideline on Genotoxicity Testing and Data Interpretation for Pharmaceuticals Intended for Human Use, validated in November 2011.
Experimental system and selection rationale: Chinese hamster ovary cells (CHO-WBL cells) were used as an experimental system in this experiment. The cell line has a karyotype containing 21 chromosomes and a growth cycle of 12 to 13 hours. CHO-WBL cells were originally derived from Dr. S. Wolff at the University of California in San Francisco, USA, then cloned in the laboratory of Dr. A. Bloom at Columbia University in New York, and cloned again by Dr. S. Galloway at Litton Bionetics Laboratory in Maryland. The cell stock solution was stored in liquid nitrogen. The karyotype of each batch of cell stock solution was identified, and tests confirmed that it was free from mycoplasma contamination. The number of passages after cell cloning will not exceed 15. Chinese hamster ovary cells were chosen because the cell line is recommended for use in OECD Guidelines for the Testing of Chemicals 487 and has been proven to be sensitive to a variety of clastogens/aneugens (Marilyn J. et al., 2006).
Medium and cell growth conditions: Chinese hamster ovary cells were cultured in McCoy's 5A complete medium (McCoy's 5A complete medium supplemented with 10 vt % fetal bovine serum, 2 mM GlutaMAX™ medium, 100 units/mL penicillin, and 100 μg/mL streptomycin), and grown in a standard environment (a high-humidity incubator with a temperature of 37° C. and a CO2 concentration of 5%). The day before administration, CHO-WBL cells in exponential growth phase were inoculated onto an eight-well cell culture slide at a density of 8×10^3 cells/400 μL McCoy's 5A complete medium/well.
Metabolic activation system: The in vitro metabolic activation system (Maron and Ames, 1983) contains a rat liver microsomal homogenate induced by β-naphthoflavone and phenobarbital (referred to as S9) and an NADPH-generating system (i.e., NADP disodium and isocitric acid trisodium). S9 was purchased from CHI Scientific, Inc. and stored in a −75° C. refrigerator prior to use. Preparation method for S9 homogenate: Male Sprague Dawley rats were intraperitoneally injected with a single dose of p-naphthoflavone and phenobarbital, followed by material preparation.
Preparation of S9 metabolic activation system: NADP disodium salt and isocitric acid trisodium salt were first dissolved in serum-free medium to prepare a core solution, which was then filtered through a 0.22 µm filter to sterilize. Immediately before use, the S9 homogenate was thawed, and the components of the S9 metabolic activation system were mixed in the proportions shown in Table 2 below.
Dose exploration experiment: In the dose exploration experiment, 8 administration concentrations were established in each administration treatment series. For each concentration of the test substance, 1 well of cells was set up. According to the ICH S2 (R1) guidelines, when not limited by the solubility of the test substance in the solvent/medium or the cytotoxicity of the test substance, the recommended maximum concentration is 1 mM or 0.5 mg/mL, whichever is lower. However, when limited by solubility, the test maximum concentration is the minimum concentration at which a small amount of precipitate is visible in the medium under the microscope. To ensure that the upper limit of solubility in the medium can be reached, up to 4 concentrations with visible precipitate can be tested.

[3] = target: T2, human α1-GABAA receptor (α1-GABAAR-HEK293 cells) (Homo sapiens, UniProt P14867+P18507); assay: Whole-cell patch-clamp electrophysiology, positive allosteric modulatory activity on α1-GABAA receptor; assay type: cell-based; details: read-out: α1-GABAA positive allosteric modulatory activity
T2 construct: expressed in transfected cells

[4] = target: T3, human α2-GABAA receptor (BZD site, membrane protein of HEK293 cells) (Homo sapiens, UniProt P18507+P47869); assay: Radioligand competitive binding assay (3H-flunitrazepam) at the BZD site of the α2-GABAA receptor; details: competition with 1 nM 3H-flunitrazepam; Ki calculated from IC50; read-out: α2 Ki
T3 construct: expressed in transfected cells

Structure (SMILES) | activation at 0.1 µM [1] [%] | activation at 0.1 µM [3] [%] | Ki [4] [nM] | Results of in vitro micronucleus assay [2]
CCn1cnc2c(-c3ccc(F)c(-c4ccc(S(=O)(=O)CC)cc4OC)c3)cnnc21 [CVL-865, reference compound] | 100 | 100 | – | Positive
CCn1cnc2c(-c3ccc(F)c(-c4cc5cccnc5cc4OC)c3)cnnc21 [Example 139, 6-(5-(7-Ethyl-7H-imidazo[4,5-c]pyridazin-4-yl)-2-fluorophenyl)-7-methoxyquinoline] | 122 | 35 | 13.2 | –
CCn1cnc2c(-c3ccc(F)c(-c4cc5cn(C)nc5cc4OC)c3)cnnc21 [Example 141, 7-Ethyl-4-(4-fluoro-3-(6-methoxy-2-methyl-2H-indazol-5-yl)phenyl)-7H-imidazo[4,5-c]pyridazine] | 105 | 37 | 9.15 | –
CCn1cnc2c(-c3ccc(F)c(-c4cc5cnn(C)c5cc4OC)c3)cnnc21 [Example 142, 7-Ethyl-4-(4-fluoro-3-(6-methoxy-1-methyl-1H-indazol-5-yl)phenyl)-7H-imidazo[4,5-c]pyridazine] | 99 | 36 | 4.54 | –

Further lines, with some results ahead:

activation at 0.1 µM [1] [%] | activation at 0.1 µM [3] [%] | Ki [4] [nM] | Structure (SMILES) | Results of in vitro micronucleus assay [2]
99 | 50 | 23.3 | CCn1cnc2c(-c3ccc(F)c(-c4ccc5c(nnn5C5CCOC5)c4COC)c3)cnnc21 (stereo not drawn) [Example 157, 7-Ethyl-4-(4-fluoro-3-(4-(methoxymethyl)-1-(tetrahydrofuran-3-yl)-1H-benzo[d][1,2,3]triazol-5-yl)phenyl)-7H-imidazo[4,5-c]pyridazine] | –
122 | 29 | 9.24 | CCn1cnc2c(-c3ccc(F)c(-c4cc5cncnc5cc4OC)c3)cnnc21 [Example 164, 6-(5-(7-Ethyl-7H-imidazo[4,5-c]pyridazin-4-yl)-2-fluorophenyl)-7-methoxyquinazoline] | –
128 | 12 | 2.39 | CCn1cnc2c(-c3ccc(F)c(-c4cc5cc(COC)c(=O)n(C)c5cc4OC)c3)cnnc21 [Example 166, 6-(5-(7-Ethyl-7H-imidazo[4,5-c]pyridazin-4-yl)-2-fluorophenyl)-7-methoxy-3-(methoxymethyl)-1-methylquinolin-2(1H)-one] | –
125 | 35 | 13.9 | CCN1C(=O)Cc2cc(-c3cc(-c4cnnc5c4ncn5CC)ccc3F)c(OC)cc21 [Example 167, 1-Ethyl-5-(5-(7-ethyl-7H-imidazo[4,5-c]pyridazin-4-yl)-2-fluorophenyl)-6-methoxyindol-2-one] | –
